Experimental data taken from patent publication US9447408B2, “Method of efficiently establishing induced pluripotent stem cells” (Kyoto University, priority 2010, dated 2016).

Assays:
[1] = test system: Mouse embryonic fibroblasts (MEFs); experiment: iPS cell establishment from Nanog-GFP reporter MEFs, 4 genes (Oct3/4, Sox2, Klf4, c-Myc) introduced, with p38 inhibitors; format: cell-based
Procedure: Mouse embryonic fibroblasts (MEFs) from a Nanog reporter mouse carrying Nanog-GFP—IRES-Puro^r [Okita K. et al, Nature 448, 313-317 (2007)] were transfected with four genes using a retrovirus to induce iPS cells.
Each retrovirus for reprogramming was prepared by transferring each of retroviral expression vectors (pMXs-Oct3/4, pMXs-Sox2, pMXs-Klf4, pMXs-cMyc:Cell, 126, 663-676 (2006)) to Plat-E cells (Morita, S. et al., Gene Ther. 7, 1063-1066) that had been seeded to a 6-well culture plate (Falcon) at 0.6×10^6 cells per well on the day before. The cells were cultured at 37° C. in the presence of 5% CO2 using DMEM/10% FCS [a culture broth prepared by adding 10% fetal calf serum to DMEM (Nacalai Tesque)]. To facilitate vector transfer, 4.5 μL of FuGene6 transfection reagent (Roche) was placed in 100 μL of Opti-MEM I Reduced-Serum Medium (Invitrogen), and the medium was allowed to stand at room temperature for 5 minutes. Subsequently, 1.5 μg of each expression vector was added, and the medium was allowed to further stand at room temperature for 15 minutes, after which they were added to the Plat-E culture broth. On day 2, the Plat-E supernatant was replaced with a fresh supply of the medium. On day 3, the culture supernatant was recovered and filtered through a 0.45 μm sterile filter (Whatman), and polybrene (Nacalai) was added at 4 μg/mL to yield a viral liquid.
Mouse embryonic fibroblasts (MEFs) were isolated from a fetal Nanog reporter mouse (13.5 days after fertilization). […] Not expressing the puromycin resistance gene as well, MEFs are susceptible to the antibiotic puromycin. As such, MEFs were seeded to a 6-well culture plate (Falcon), previously coated with 0.1% gelatin (Sigma), at 1.0×10^5 cells per well. DMEM/10% FCS served as the culture broth at 37° C. in the presence of 5% CO2. The following day, each retrovirus liquid was added, and this was followed by overnight infection to introduce the genes.
On day 1 after the viral infection, the medium for the MEFs was removed, and the cells were washed by the addition of 1 mL of PBS. After removing the PBS, 0.25% Trypsin/1 mM EDTA (Invitrogen) was added, and a reaction was carried out at 37° C. for about 5 minutes. After the cells floated up, the cells were suspended by the addition of an ES cell culture medium and 2500 cells were seeded to a 100 mm dish having mitomycin C-treated STO feeder cells seeded thereto previously. Cultivation was continued while replacing the ES cell culture medium with a fresh supply of the same medium every two days until a visible colony emerged.
To determine the effects of p38 inhibitors on the establishment of iPS cells by the introduction of the four mouse genes, cultivation was continued with the addition of 10 μM of the p38 inhibitor 5B202190, SB239063, or SB203580 (Calbiochem Company) to the medium per the schedule shown below. All these inhibitors were used in solution in DMSO. • 1. Oct3/4, Sox2, Klf4, c-Myc, each derived from mouse, saline • 2. Oct3/4, Sox2, Klf4, c-Myc, each derived from mouse, DMSO • 3. Oct3/4, Sox2, Klf4, c-Myc, each derived from mouse, SB202190 10 μM Day 1-4) • 4. Oct3/4, Sox2, Klf4, c-Myc, each derived from mouse, SB202190 10 μM (Day 1-8) • 5. Oct3/4, Sox2, Klf4, c-Myc, each derived from mouse, SB202190 10 μM (Day 9-16) • 6. Oct3/4, Sox2, Klf4, c-Myc, each derived from mouse, SB202190 10 μM (Day 1-16) • 7. Oct3/4, Sox2, Klf4, c-Myc, each derived from mouse, SB239063 10 μM (Day 1-4) • 8. Oct3/4, Sox2, Klf4, c-Myc, each derived from mouse, SB239063 10 μM (Day 1-8) • 9. Oct3/4, Sox2, Klf4, c-Myc, each derived from mouse, SB239063 10 μM (Day 9-16) • 10. Oct3/4, Sox2, Klf4, c-Myc, each derived from mouse, SB239063 10 μM (Day 1-16) • 11. Oct3/4, Sox2, Klf4, c-Myc, each derived from mouse, SB203580 10 μM (Day 1-4) • 12. Oct3/4, Sox2, Klf4, c-Myc, each derived from mouse, SB203580 10 μM (Day 1-8) • 13. Oct3/4, Sox2, Klf4, c-Myc, each derived from mouse, SB203580 10 μM (Day 9-16) • 14. […]

[2] = test system: Mouse embryonic fibroblasts (MEFs); experiment: iPS cell establishment from MEFs, 3 genes (Oct3/4, Sox2, Klf4) introduced, with p38 inhibitors; format: cell-based; settings: 10 μM inhibitor added in the initial stage after the infection
Procedure: Three genes were introduced using a retrovirus by the same experimental procedures as the above. The cells were cultured at a cell density of 2×10^4 cells/10 cm dish, with the addition of 10 μM of SB202190, SB239063, or SB203580 (Calbiochem Company) to the medium per the schedule shown below, and the establishment efficiency was compared. • 1. Oct3/4, Sox2, Klf4, each derived from mouse, saline • 2. Oct3/4, Sox2, Klf4, each derived from mouse, DMSO • 3. Oct3/4, Sox2, Klf4, each derived from mouse, SB202190 10 μM (Day 1-4) • 4. Oct3/4, Sox2, Klf4, each derived from mouse, SB202190 10 μM (Day 1-8) • 5. Oct3/4, Sox2, Klf4, each derived from mouse, SB202190 10 μM (Day 9-16) • 6. Oct3/4, Sox2, Klf4, each derived from mouse, SB202190 10 μM (Day 1-16) • 7. Oct3/4, Sox2, Klf4, each derived from mouse, SB239063 10 μM (Day 1-4) • 8. Oct3/4, Sox2, Klf4, each derived from mouse, SB239063 10 μM (Day 1-8) • 9. Oct3/4, Sox2, Klf4, each derived from mouse, SB239063 10 μM (Day 9-16) • 10. Oct3/4, Sox2, Klf4, each derived from mouse, SB239063 10 μM (Day 1-16) • 11. Oct3/4, Sox2, Klf4, each derived from mouse, SB203580 10 μM (Day 1-4) • 12. Oct3/4, Sox2, Klf4, each derived from mouse, SB203580 10 μM (Day 1-8) • 13. Oct3/4, Sox2, Klf4, each derived from mouse, SB203580 10 μM (Day 9-16) • 14. Oct3/4, Sox2, Klf4, each derived from mouse, SB203580 10 μM (Day 1-16),

SMILES: C[S+]([O-])c1ccc(-c2nc(-c3ccc(F)cc3)c(-c3ccncc3)[nH]2)cc1 (stereo not drawn) [SB203580, 4-(4-fluorophenyl)-2-(4-methylsulfinylphenyl)-5-(4-pyridyl)-1H-imidazole]
- effect on colony count when measured on day 28 after the infection ([1]; 10 μM inhibitor on days 1 to 4, counted day 28): remarkable
- colony count compared with cells treated with physiological saline or DMSO ([1]; 10 μM inhibitor on days 1 to 4 after the infection, FIG. 1): tended to increase
- number of positive cells compared with DMSO treatment [2]: increased
